Experimental data: BigSolDB 2.1

CC(C)(C)C(=O)C(Oc1ccc(Cl)cc1)n1cncn1 (stereo not given)
solubility (mole fraction)
Details | 288.15 K | 293.15 K | 298.15 K | 303.15 K | 308.15 K | 313.15 K | 318.15 K | 323.15 K | 328.15 K | 333.15 K
in acetonitrile | 0.011 | 0.0132 | 0.0162 | 0.0196 | 0.0238 | 0.0285 | 0.034 | 0.0407 | 0.0479 | 0.057
in cyclohexane | 0.000445 | 0.00143 | 0.00382 | 0.00873 | 0.0178 | 0.0315 | 0.0489 | 0.0692 | 0.0869 | 0.0986
in n-heptane | 0.00129 | 0.00204 | 0.00321 | 0.00483 | 0.00737 | 0.0111 | 0.0164 | 0.0238 | 0.034 | 0.0491
in n-hexane | 0.000262 | 0.000539 | 0.00104 | 0.00197 | 0.0035 | 0.00592 | 0.00984 | 0.0156 | 0.0233 | 0.0354
in p-xylene | 0.0631 | 0.0846 | 0.112 | 0.147 | 0.188 | 0.239 | 0.299 | 0.372 | 0.456 | 0.553
in toluene | 0.0916 | 0.119 | 0.154 | 0.192 | 0.235 | 0.282 | 0.333 | 0.381 | 0.431 | 0.475
